The results in this text go back to paper PMC7539012, “Hyperphosphorylated tau aggregation and cytotoxicity modulators screen identified prescription drugs linked to Alzheimer's disease and cognitive functions” (Scientific Reports, 2020).

Molecules are shown by their SMILES. Structures can show the parent of a compound that is named as a salt.

The subject of the first assay is T1, 1N4R p-tau.
T1 construct: made in house; host or cells: E. coli (PIMAX system)
The experiment in a line: p-tau aggregation modulator screen of 1280-compound library (ThS fluorescence net change over 16 h). It is filed as biochemical. On the set-up: key to PTAI>2SD: *: PTAI>2SD.
Details: not given
`COc1cccc2c1C(=O)c1c(O)c3c(c(O)c1C2=O)C[C@@](O)(C(=O)CO)C[C@@H]3O[C@H]1C[C@H](N)[C@H](O)[C@H](C)O1` [Doxorubicin hydrochloride] yielded a ThS net change of 249. Still for that read-out and setting: as for `CC[C@]12CCCN3CCc4c(n(c5ccccc45)C(=O)C1)[C@@H]32` [Eburnamonine (-)], the figure is 379; as for `Clc1ccc(COC(Cn2ccnc2)c2ccc(Cl)cc2Cl)cc1` (centres unmarked) [Econazole nitrate], 309; as for `C[C@H](N[C@@H](CCc1ccccc1)C(=O)O)C(=O)N1CCC[C@H]1C(=O)O.O.O` [Enalaprilat dihydrate], 438.

Staying with this assay, now noted: 30 µM compound, 6 µM p-tau, 16 h.
For `NCCc1ccc(O)c(O)c1` [Dopamine, reference compound], the “effect on p-tau aggregation in pilot screen” value is on record as “none of them affected p-tau aggregation”.

The same assay, now with this note: 1280-compound library screen; ThS fluorescence net change over 16 h.
`O=c1[nH]c2ccccc2n1CCCN1CCC(n2c(=O)[nH]c3cc(Cl)ccc32)CC1` [Domperidone]: the ThS net change is 392. With `NCCc1ccc(O)c(O)c1` [Dopamine hydrochloride], the ThS net change came to 404. The same measure, in the same setting: as for `CCN(CC)CCOC(=O)C(c1ccccc1)C1CCCCC1` (centres unmarked) [Drofenine hydrochloride], the figure is 388; as for `O=C(CCCN1CC=C(n2c(=O)[nH]c3ccccc32)CC1)c1ccc(F)cc1` [Droperidol], 412; as for `CCCCOc1ccc(C(=O)CCN2CCCCC2)cc1` [Dyclonine hydrochloride], 406.

Compound `CC[N+](C)(C)c1cccc(O)c1` [Edrophonium chloride] displayed a ThS net change of 389. `CCOCCn1c(N2CCCN(C)CC2)nc2ccccc21` [Emedastine] displayed a ThS net change of 387.

Staying with this assay, now noted: flag: p-tau aggregation inhibitor, ThS net change more than 2 SD from mean.
Consider `C[C@H]1c2cccc(O)c2C(=O)C2=C(O)[C@]3(O)C(=O)C(C(N)=O)=C(O)[C@@H](N(C)C)[C@@H]3[C@@H](O)[C@@H]21` [Doxycycline hydrochloride], for which the “PTAI>2SD” value is recorded as “*”.

Staying with this assay, now noted: library screen, ThS fluorescence net change over 16 h with p-tau.
`CN(C)CC/C=C1\c2ccccc2CSc2ccccc21` [Dosulepin hydrochloride]: the ThS net change was 311. The compound `COc1cc2nc(N3CCN(C(=O)C4COc5ccccc5O4)CC3)nc(N)c2cc1OC` (centres unmarked) [Doxazosin mesylate] displayed a ThS net change of 310. In turn, `C[C@H]1c2cccc(O)c2C(=O)C2=C(O)[C@]3(O)C(=O)C(C(N)=O)=C(O)[C@@H](N(C)C)[C@@H]3[C@@H](O)[C@@H]21` [Doxycycline hydrochloride] displayed a ThS net change of 174.

Still in this assay, the particulars now being: p-tau aggregation modulator screen of 1280-compound library; ThS fluorescence net change.
For `CN(C)CCC=C1c2ccccc2COc2ccccc21` [Doxepin hydrochloride], the ThS net change amounted to 341.

Compound `CN(C)CCOC(C)(c1ccccc1)c1ccccn1` (centres unmarked) [Doxylamine succinate] gave a ThS net change of 367. `CC(=O)[C@H]1CC[C@H]2[C@@H]3C=CC4=CC(=O)CC[C@@]4(C)[C@@H]3CC[C@]12C` [Dydrogesterone] displayed a ThS net change of 371. `O=c1c2ccccc2[se]n1-c1ccccc1` [Ebselen] yielded a ThS net change of 348. In turn, `CCn1cc(C(=O)O)c(=O)c2cc(F)c(N3CCNCC3)nc21` [Enoxacin] gave a ThS net change of 378. `CCN1CCN(c2cc3c(cc2F)c(=O)c(C(=O)O)cn3C2CC2)CC1` [Enrofloxacin] came in with a ThS net change of 364.

Staying with this assay, now noted: p-tau aggregation modulator screen of the compound library, ThS fluorescence net change.
For `COc1cc2c(cc1OC)C(=O)C(CC1CCN(Cc3ccccc3)CC1)C2` (centres unmarked) [Donepezil hydrochloride], the ThS net change was 435.

`CCN[C@H]1C[C@H](C)S(=O)(=O)c2sc(S(N)(=O)=O)cc21` [Dorzolamide hydrochloride] returned a ThS net change of 463.

Compound `CCN1CC(CCN2CCOCC2)C(c2ccccc2)(c2ccccc2)C1=O.Cl` (centres unmarked) [Doxapram hydrochloride] showed a ThS net change of 418. On the same count and under the same terms, to `Cn1c(=O)c2c(ncn2CC2OCCO2)n(C)c1=O` [Doxofylline] belongs 451.

The compound `O=C1Nc2ccc(Cl)cc2[C@@](C#CC2CC2)(C(F)(F)F)O1` [Efavirenz] displayed a ThS net change of 436. On the same count and under the same terms, to `CCOC(=O)[C@H](CCc1ccccc1)N[C@@H](C)C(=O)N1CCC[C@H]1C(=O)O` [Enalapril maleate] belongs 2088; to `C=CCOC(Cn1ccnc1)c1ccc(Cl)cc1Cl` (centres unmarked) [Enilconazole], 461.
